From publication PMC2711511 (Bioorganic & medicinal chemistry letters, 2008)

Key:
ERα [1] = biological target: T1, ERα (Homo sapiens, UniProt P03372); assay: estrogen-responsive reporter gene cotransfection assay in HEC-1 cells, ERα
T1 sequence (P03372 1-595): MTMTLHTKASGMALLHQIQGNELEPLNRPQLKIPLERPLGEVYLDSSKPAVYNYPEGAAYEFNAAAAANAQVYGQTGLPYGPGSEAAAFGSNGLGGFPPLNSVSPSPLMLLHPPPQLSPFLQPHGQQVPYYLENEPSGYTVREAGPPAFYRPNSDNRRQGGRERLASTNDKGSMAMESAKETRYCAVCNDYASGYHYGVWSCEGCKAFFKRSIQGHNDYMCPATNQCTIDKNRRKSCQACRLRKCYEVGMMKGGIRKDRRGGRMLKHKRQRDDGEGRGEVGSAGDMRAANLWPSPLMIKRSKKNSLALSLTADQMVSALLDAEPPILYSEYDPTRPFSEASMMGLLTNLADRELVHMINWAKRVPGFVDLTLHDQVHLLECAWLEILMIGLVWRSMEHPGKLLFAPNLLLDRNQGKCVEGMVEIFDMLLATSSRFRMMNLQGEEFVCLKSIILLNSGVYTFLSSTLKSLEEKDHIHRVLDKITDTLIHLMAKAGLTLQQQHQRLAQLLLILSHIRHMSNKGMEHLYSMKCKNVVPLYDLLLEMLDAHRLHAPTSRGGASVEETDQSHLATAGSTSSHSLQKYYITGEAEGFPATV

ERα [2] = biological target: T1, ERα; conditions: cited from earlier work
ERα [3] = biological target: T1, ERα; conditions: cited from earlier work; remark: listed apart in the source
ERα [4] = biological target: T1, ERα; assay: competitive radiometric binding assay, ERα

For `Cc1c(-c2ccc(O)cc2)nn(-c2ccc(O)cc2)c1-c1ccc(OCCN2CCCCC2)cc1` [MPP, Methyl-piperidino-pyrazole], the “ERα partial agonist activity” value (ERα [1]) was “residual, low ERα partial agonist activity”.
For `CCCc1c(-c2ccc(O)cc2)nn(-c2ccc(O)cc2)c1-c1ccc(O)cc1` [PPT, propyl-pyrazole-triol], the “affinity on ERα versus ERβ” value (ERα [2]) is listed as “ca. 1000 fold” and the “agonist potency on ERα versus ERβ” value (ERα [3]) is listed as “ca. 1000 fold”.
In the case of `Cc1c(-c2ccc(O)cc2)nn(-c2ccc(O)cc2)c1-c1ccc(CCCN2CCCCC2)cc1` [compound 1], the “ERα selectivity relative to that of the triol agonist MPT” value (ERα [4]) is reported as “about 2.3 fold” and the “ERα partial agonist activity” value (ERα [1]) is reported as “lacks”.
In the case of `Cc1c(-c2ccc(O)cc2)nn(-c2ccc(O)cc2)c1-c1ccc(/C=C/C(=O)N2CCCCC2)cc1` [compound 2], the “binding (in words)” value (ERα [4]; compared with MPP and 1) is reported as “markedly lower”.
